IC50, Activity and inhibition data for 22 molecules are collected here from ChEMBL document CHEMBL2016567, “Novel acridinedione derivatives: design, synthesis, SIRT1 enzyme and tumor cell growth inhibition studies” (Bioorg Med Chem Lett, 2012).

Active and inactive are the calls of the source. The rule behind the calls is not given here. Bounds are passed on as bounds.

Data set [1] relates to MDA-MB-231. The data set is described as follows: Growth inhibition of human MDA-MB-231 cells. Type of data set: functional, cell-based.
Data set [2] addresses T1, NAD-dependent protein deacetylase sirtuin-1 (Homo sapiens, UniProt Q96EB6).
T1 sequence (Q96EB6 whole entry): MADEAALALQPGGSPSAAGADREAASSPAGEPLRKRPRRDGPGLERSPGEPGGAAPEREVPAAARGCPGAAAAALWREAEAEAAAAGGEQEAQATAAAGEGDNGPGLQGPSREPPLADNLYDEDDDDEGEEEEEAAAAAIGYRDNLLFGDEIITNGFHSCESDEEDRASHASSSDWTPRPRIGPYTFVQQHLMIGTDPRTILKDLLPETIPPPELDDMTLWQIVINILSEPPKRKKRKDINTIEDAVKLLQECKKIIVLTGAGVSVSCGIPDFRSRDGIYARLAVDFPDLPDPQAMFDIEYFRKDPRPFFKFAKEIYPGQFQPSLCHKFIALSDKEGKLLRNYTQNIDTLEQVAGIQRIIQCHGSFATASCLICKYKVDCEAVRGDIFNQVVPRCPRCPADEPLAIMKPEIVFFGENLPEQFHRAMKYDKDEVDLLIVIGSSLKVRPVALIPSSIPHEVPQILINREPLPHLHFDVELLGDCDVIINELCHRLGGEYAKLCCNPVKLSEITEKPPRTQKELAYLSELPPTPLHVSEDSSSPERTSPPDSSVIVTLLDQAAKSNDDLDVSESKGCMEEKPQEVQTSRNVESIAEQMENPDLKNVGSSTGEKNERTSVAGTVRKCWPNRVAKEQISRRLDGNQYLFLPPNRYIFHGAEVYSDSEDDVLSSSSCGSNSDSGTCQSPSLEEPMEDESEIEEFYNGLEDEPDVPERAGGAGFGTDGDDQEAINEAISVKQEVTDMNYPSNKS
In words: Inhibition of human SIRT1 using Fluor-de-Lys as substrate.

Data set [3] deals with HEK293. In words: Cytotoxicity against human HEK293 cells at 10 uM. Type of data set: cell-based. To be noted: hek293, 10 µM.
Data set [4] concerns the target T2, NAD-dependent protein deacetylase sirtuin-1 (Homo sapiens) (UniProt Q96EB6).
T2 sequence (whole entry): T1 sequence (Q96EB6 whole entry)
The data set is described as follows: Inhibition of human SIRT1 using Fluor-de-Lys as substrate at 50 uM.

Data set [5] has as its system K562. In words: Growth inhibition of human K562 cells. Type of data set: functional, cell-based.
Data set [6] concerns the target T2, NAD-dependent protein deacetylase sirtuin-1 (Homo sapiens). The data set is described as follows: Inhibition of SIRT1 in human MDA-MB-231 cells assessed as increase in p53 acetylation at lysine 382 residue after 24 hrs by Western blot analysis. Type of data set: cell-based.
The test system of data set [7] is MDA-MB-231. The data set is described as follows: Decrease in SIRT1 protein level in human MDA-MB-231 cells after 24 hrs by Western blot analysis. Type of data set: functional, cell-based.

Regarding `CC1(C)CC(=O)C2=C(C1)N(Nc1ccccc1)C1=C(C(=O)CC(C)(C)C1)C2c1ccccc1OCc1ccccc1`, the IC50 in data set [1] was 50 µM; in data set [2] it was 11.1 µM. Moreover, the Activity result in data set [3] is “Non-toxic”. For the same molecule, the inhibition in data set [4] was 82.1%.

As for `CC1(C)CC(=O)C2=C(C1)N(NC(=O)c1ccc([N+](=O)[O-])cc1)C1=C(C(=O)CC(C)(C)C1)C2c1ccccc1OCc1ccccc1`, in data set [4], the inhibition worked out at 39%.

Molecule `CC1(C)CC(=O)C2=C(C1)N(NC(=O)c1ccccc1)C1=C(C(=O)CC(C)(C)C1)C2c1ccccc1OCc1ccccc1` had an inhibition in data set [4] of 39.7%.

As to `CC1(C)CC(=O)C2=C(C1)N(NC(=O)c1ccncc1)C1=C(C(=O)CC(C)(C)C1)C2c1ccc(OCc2ccccc2)cc1`, the concentration for half-maximal inhibition (IC50) in data set [1] and in data set [5] was over 50 µM in each case. Further, the Activity entry in data set [3] is given as “Non-toxic”. Moreover, in data set [4], the inhibition result is “inactive”.

`Cc1ccc(C(=O)Nc2ccc(S(=O)(=O)O)c3cc(S(=O)(=O)O)cc(S(=O)(=O)O)c23)cc1NC(=O)c1cccc(NC(=O)Nc2cccc(C(=O)Nc3cc(C(=O)Nc4ccc(S(=O)(=O)O)c5cc(S(=O)(=O)O)cc(S(=O)(=O)O)c45)ccc3C)c2)c1` [SURAMIN]: the 50% inhibitory concentration (IC50) in data set [1] came to 31.2 µM; in data set [5], 18.5 µM. Also, the Activity entry in data set [3] is recorded as “Non-toxic”. The molecule further came in with an inhibition in data set [4] of 53.9%.

On to `CC1(C)CC(=O)C2=C(C1)N(Nc1ccccc1)C1=C(C(=O)CC(C)(C)C1)C2c1cccc(OCc2ccccc2)c1`, for which the IC50 in data set [1] was found to be 0.99 µM; in data set [2] it was 40.1 µM. The Activity result in data set [3] is on record as “Non-toxic”. In data set [4], the inhibition stood at 51.4%.

In the case of `CC1(C)CC(=O)C2=C(C1)N(Nc1ccc([N+](=O)[O-])cc1[N+](=O)[O-])C1=C(C(=O)CC(C)(C)C1)C2c1ccccc1OCc1ccccc1`, the half-maximal inhibitory concentration (IC50) was found to be 0.25 µM in data set [1] and 10.1 µM in data set [2]. Also, the inhibition result in data set [6] was “Dose-dependent effect”; in data set [4], 83.2%. Also, the Activity result in data set [7] is “Dose-dependent effect”; in data set [3], “Non-toxic”.

In data set [4], `COc1ccc(C(=O)NN2C3=C(C(=O)CC(C)(C)C3)C(c3cccc(OCc4ccccc4)c3)C3=C2CC(C)(C)CC3=O)c(OC)n1` gave an inhibition of 35.6%.

Molecule `CC1(C)CC(=O)C2=C(C1)N(NC(=O)c1ccc(Cl)cc1Cl)C1=C(C(=O)CC(C)(C)C1)C2c1ccc(OCc2ccccc2)cc1` came in with an inhibition in data set [4] of 3.6%.

`CC1(C)CC(=O)C2=C(C1)N(NC(=O)c1ccncc1)C1=C(C(=O)CC(C)(C)C1)C2c1cccc(OCc2ccccc2)c1`: the IC50 is over 50 µM in data set [1] and 10 µM in data set [5]. For the same molecule, in data set [3], the Activity entry was “Non-toxic”. Further, the inhibition in data set [4] turned out to be 53.7%.

`COc1ccc(C(=O)NN2C3=C(C(=O)CC(C)(C)C3)C(c3ccccc3OCc3ccccc3)C3=C2CC(C)(C)CC3=O)c(OC)n1`: the inhibition in data set [4] was 35.2%.

Turning to `CC1(C)CC(=O)C2=C(C1)N(Nc1ccc([N+](=O)[O-])cc1[N+](=O)[O-])C1=C(C(=O)CC(C)(C)C1)C2c1ccc(OCc2ccccc2)cc1`, the IC50 in data set [1] was 6.63 µM; in data set [2], 43.3 µM. Moreover, in data set [3], the Activity result is recorded as “Non-toxic”. The molecule further had an inhibition in data set [4] of 54.8%.

Molecule `CC1(C)CC(=O)C2=C(C1)N(NC(=O)c1ccccc1)C1=C(C(=O)CC(C)(C)C1)C2c1cccc(OCc2ccccc2)c1` gave an inhibition in data set [4] of 21.5%.

For the molecule `CC1(C)CC(=O)C2=C(C1)N(NC(=O)c1ccccc1)C1=C(C(=O)CC(C)(C)C1)C2c1ccc(OCc2ccccc2)cc1`, the half-inhibitory concentration (IC50) in data set [1] was found to be 3.16 µM; in data set [2], 46 µM. In data set [3], the Activity entry is listed as “Non-toxic”. The molecule further displayed an inhibition in data set [4] of 52%.

Turning to `CC1(C)CC(=O)C2=C(C1)N(Nc1ccccc1)C1=C(C(=O)CC(C)(C)C1)C2c1ccc(OCc2ccccc2)cc1`, the IC50 in data set [1] came to 1.38 µM; in data set [2], 43.1 µM. In addition, the Activity result in data set [3] was “Non-toxic”. Also, the inhibition in data set [4] was 55.2%.

Consider `COc1cccc2c1C(=O)c1c(O)c3c(c(O)c1C2=O)C[C@@](O)(C(=O)CO)C[C@@H]3O[C@H]1C[C@H](N)[C@H](O)[C@H](C)O1` [DOXORUBICIN], for which it took 10 µM to reach half-maximal inhibition in data set [1] (IC50). The Activity result in data set [3] was “Non-toxic”.

`CC1(C)CC(=O)C2=C(C1)N(NC(=O)c1ccc([N+](=O)[O-])cc1)C1=C(C(=O)CC(C)(C)C1)C2c1ccc(OCc2ccccc2)cc1` yielded an inhibition in data set [4] of 35.6%.

`CC1(C)CC(=O)C2=C(C1)N(NC(=O)c1ccc([N+](=O)[O-])cc1)C1=C(C(=O)CC(C)(C)C1)C2c1cccc(OCc2ccccc2)c1` had an inhibition in data set [4] of 33.6%.

As for `CC1(C)CC(=O)C2=C(C1)N(NC(=O)c1ccncc1)C1=C(C(=O)CC(C)(C)C1)C2c1ccccc1OCc1ccccc1`, the values for the half-inhibitory concentration (IC50) in data set [1] and in data set [5] were 5 µM and 10 µM, respectively. Also, in data set [3], the Activity result is “Non-toxic”. The inhibition in data set [4] came out at 72.6%.

`CC1(C)CC(=O)C2=C(C1)N(NC(=O)c1ccc(Cl)cc1Cl)C1=C(C(=O)CC(C)(C)C1)C2c1cccc(OCc2ccccc2)c1` had an inhibition in data set [4] of 4.7%.

In data set [4], `CC1(C)CC(=O)C2=C(C1)N(Nc1ccc([N+](=O)[O-])cc1[N+](=O)[O-])C1=C(C(=O)CC(C)(C)C1)C2c1cccc(OCc2ccccc2)c1` returned an inhibition of 33.2%.

In the case of `COc1ccc(C(=O)NN2C3=C(C(=O)CC(C)(C)C3)C(c3ccc(OCc4ccccc4)cc3)C3=C2CC(C)(C)CC3=O)c(OC)n1`, the IC50 in data set [1] was determined as 0.31 µM; in data set [2], 25 µM. The Activity entry in data set [3] is reported as “Non-toxic”. This molecule also came in with an inhibition in data set [4] of 55.1%.
